Earlier results in patent US20210236523A1, “P[…] FOR HEADACHE DISORDERS” (priority 2020, published 2021).
“Also recorded” adds a separate entry of the source.

How the values were obtained:
cluster headache = details: et al., cited from earlier work
5-HT2A = 5-HT2A (Homo sapiens, UniProt P28223); details: cited from earlier work
5-HT1 = details: cited from earlier work
5-HT2B = 5-HT2B (Homo sapiens, UniProt P41595); details: cited from earlier work
dopamine receptor = details: cited from earlier work

Chain of 5-HT2A (P28223 whole entry): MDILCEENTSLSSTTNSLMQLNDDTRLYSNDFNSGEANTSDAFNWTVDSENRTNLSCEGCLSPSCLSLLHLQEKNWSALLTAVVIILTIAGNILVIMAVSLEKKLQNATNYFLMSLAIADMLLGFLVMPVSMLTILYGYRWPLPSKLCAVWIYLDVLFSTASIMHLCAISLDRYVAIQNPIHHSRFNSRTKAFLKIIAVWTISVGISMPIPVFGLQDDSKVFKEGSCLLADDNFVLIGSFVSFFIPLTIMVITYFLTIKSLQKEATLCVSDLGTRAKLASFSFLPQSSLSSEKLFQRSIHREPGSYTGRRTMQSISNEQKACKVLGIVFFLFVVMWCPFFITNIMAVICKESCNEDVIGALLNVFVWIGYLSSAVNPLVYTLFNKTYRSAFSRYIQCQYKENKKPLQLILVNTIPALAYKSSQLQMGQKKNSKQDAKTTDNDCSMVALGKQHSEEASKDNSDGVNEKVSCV
Chain of 5-HT2B (P41595 whole entry, species assumed): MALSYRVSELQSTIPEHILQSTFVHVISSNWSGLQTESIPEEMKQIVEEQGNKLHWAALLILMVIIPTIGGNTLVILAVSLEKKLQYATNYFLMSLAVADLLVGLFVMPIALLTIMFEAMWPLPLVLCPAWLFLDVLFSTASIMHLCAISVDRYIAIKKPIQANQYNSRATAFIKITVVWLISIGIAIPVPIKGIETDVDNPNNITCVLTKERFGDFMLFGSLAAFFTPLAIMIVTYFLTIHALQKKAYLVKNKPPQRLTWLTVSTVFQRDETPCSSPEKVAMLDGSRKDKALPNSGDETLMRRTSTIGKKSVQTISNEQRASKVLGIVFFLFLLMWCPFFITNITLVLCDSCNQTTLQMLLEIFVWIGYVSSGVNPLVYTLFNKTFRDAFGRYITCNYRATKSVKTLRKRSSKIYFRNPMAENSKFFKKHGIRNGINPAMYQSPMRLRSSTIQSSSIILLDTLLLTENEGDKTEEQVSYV

SMILES: CCN(CC)C(=O)[C@@H]1C=C2c3cccc4[nH]c(Br)c(c34)C[C@H]2N(C)C1 [BOL-148, 2-bromo-lysergic acid diethylamide]
- effect on cluster headache cycle and attacks (cluster headache; three single oral doses of 30 μg/kg, Karst, 2010): either break a cluster headache cycle or considerably improve the frequency and intensity of attacks

SMILES: CCN(CC)C(=O)[C@@H]1C=C2c3cccc4[nH]cc(c34)C[C@H]2N(C)C1 [LSD, lysergic acid diethylamide]
- reported effects in cluster headache (cluster headache; Sewell, 2006, Schindler et al., 2015): stop acute cluster attacks, terminate cluster cycles, and induce and prolong remission from cluster headache

SMILES: CN(C)CCc1c[nH]c2cccc(O)c12 [psilocin]
- affinity for 5-HT2A (5-HT2A): high affinity; also recorded: modest affinity
- affinity for 5-HT1 (5-HT1): low affinity
- affinity for 5-HT2B (5-HT2B): high affinity
- effect on the dopamine receptor (dopamine receptor): no effect
